How the values were obtained:
Format in all cases: functional
[1] = test system: Enterococcus faecium; assay: Antibacterial activity against Enterococcus faecium 14-1 after 18 to 24 hrs by CLSI M100-S11 method
[2] = test system: Staphylococcus aureus; assay: Antibacterial activity against methicillin-sensitive Staphylococcus aureus 14-4 after 18 to 24 hrs by CLSI M100-S11 method
[3] = test system: Pseudomonas aeruginosa; assay: Antibacterial activity against Pseudomonas aeruginosa 14-19 after 18 to 24 hrs by CLSI M100-S11 method
[4] = test system: Pseudomonas aeruginosa; assay: Antibacterial activity against Pseudomonas aeruginosa 14-15 after 18 to 24 hrs by CLSI M100-S11 method
[5] = test system: Escherichia coli; assay: Antibacterial activity against extended-spectrum beta-lactamase-producing Escherichia coli 14-2 after 18 to 24 hrs by CLSI M100-S11 method
[6] = test system: Escherichia coli; assay: Antibacterial activity against Escherichia coli 14-2 after 18 to 24 hrs by CLSI M100-S11 method
[7] = test system: Escherichia coli; assay: Antibacterial activity against Escherichia coli 14-1 after 18 to 24 hrs by CLSI M100-S11 method
[8] = test system: Staphylococcus aureus; assay: Antibacterial activity against methicillin-resistant Staphylococcus aureus 14-4 after 18 to 24 hrs by CLSI M100-S11 method
[9] = test system: Staphylococcus epidermidis; assay: Antibacterial activity against methicillin-resistant Staphylococcus epidermidis 14-39 after 18 to 24 hrs by CLSI M100-S11 method
[10] = test system: Staphylococcus epidermidis; assay: Antibacterial activity against methicillin-sensitive Staphylococcus epidermidis 14-2 after 18 to 24 hrs by CLSI M100-S11 method
[11] = test system: Pseudomonas aeruginosa; assay: Antibacterial activity against Pseudomonas aeruginosa 14-16 after 18 to 24 hrs by CLSI M100-S11 method
[12] = test system: Staphylococcus aureus; assay: Antibacterial activity against methicillin-sensitive Staphylococcus aureus 14-3 after 18 to 24 hrs by CLSI M100-S11 method
[13] = test system: Staphylococcus epidermidis; assay: Antibacterial activity against methicillin-sensitive Staphylococcus epidermidis 14-6 after 18 to 24 hrs by CLSI M100-S11 method
[14] = test system: Staphylococcus epidermidis; assay: Antibacterial activity against methicillin-sensitive Staphylococcus epidermidis 14-4 after 18 to 24 hrs by CLSI M100-S11 method
[15] = test system: Pseudomonas aeruginosa; assay: Antibacterial activity against Pseudomonas aeruginosa 14-14 after 18 to 24 hrs by CLSI M100-S11 method
[16] = test system: Staphylococcus aureus; assay: Antibacterial activity against methicillin-resistant Staphylococcus aureus 14-5 after 18 to 24 hrs by CLSI M100-S11 method
[17] = test system: Staphylococcus epidermidis; assay: Antibacterial activity against methicillin-resistant Staphylococcus epidermidis 14-22 after 18 to 24 hrs by CLSI M100-S11 method
[18] = test system: Klebsiella pneumoniae; assay: Antibacterial activity against Klebsiella pneumoniae 14-1 after 18 to 24 hrs by CLSI M100-S11 method
[19] = test system: Mycobacterium tuberculosis; assay: Antimycobacterial activity against Mycobacterium tuberculosis H37Rv ATCC 27294 after 3 days by microplate Alamar Blue assay; details: H37Rv ATCC 27294, 72 h
[20] = test system: Klebsiella pneumoniae; assay: Antibacterial activity against extended-spectrum beta-lactamase-producing Klebsiella pneumoniae 14-18 after 18 to 24 hrs by CLSI M100-S11 method
[21] = test system: Staphylococcus epidermidis; assay: Antibacterial activity against methicillin-resistant Staphylococcus epidermidis 14-37 after 18 to 24 hrs by CLSI M100-S11 method
[22] = test system: Streptococcus pneumoniae; assay: Antibacterial activity against Streptococcus pneumoniae ATCC 19615 after 18 to 24 hrs by CLSI M100-S11 method
[23] = test system: Pseudomonas aeruginosa; assay: Antibacterial activity against Pseudomonas aeruginosa 14-9 after 18 to 24 hrs by CLSI M100-S11 method
[24] = test system: Enterococcus faecalis; assay: Antibacterial activity against Enterococcus faecalis 14-3 after 18 to 24 hrs by CLSI M100-S11 method
[25] = test system: Klebsiella pneumoniae; assay: Antibacterial activity against Klebsiella pneumoniae 14-3 after 18 to 24 hrs by CLSI M100-S11 method
[26] = test system: Klebsiella pneumoniae; assay: Antibacterial activity against Klebsiella pneumoniae 14-2 after 18 to 24 hrs by CLSI M100-S11 method
[27] = test system: Klebsiella pneumoniae; assay: Antibacterial activity against extended-spectrum beta-lactamase-producing Klebsiella pneumoniae 14-17 after 18 to 24 hrs by CLSI M100-S11 method
[28] = test system: Enterococcus faecalis; assay: Antibacterial activity against Enterococcus faecalis 14-2 after 18 to 24 hrs by CLSI M100-S11 method
[29] = test system: Escherichia coli; assay: Antibacterial activity against Escherichia coli ATCC 25922 after 18 to 24 hrs by CLSI M100-S11 method
[30] = test system: Enterococcus faecium; assay: Antibacterial activity against Enterococcus faecium 14-2 after 18 to 24 hrs by CLSI M100-S11 method
[31] = test system: Enterococcus faecalis; assay: Antibacterial activity against Enterococcus faecalis 14-1 after 18 to 24 hrs by CLSI M100-S11 method
[32] = test system: Escherichia coli; assay: Antibacterial activity against extended-spectrum beta-lactamase-producing Escherichia coli 14-1 after 18 to 24 hrs by CLSI M100-S11 method
[33] = test system: Pseudomonas aeruginosa; assay: Antibacterial activity against Pseudomonas aeruginosa ATCC 27853 after 18 to 24 hrs by CLSI M100-S11 method
[34] = test system: Staphylococcus aureus; assay: Antibacterial activity against methicillin-sensitive Staphylococcus aureus 14-2 after 18 to 24 hrs by CLSI M100-S11 method
[35] = test system: Klebsiella pneumoniae; assay: Antibacterial activity against Klebsiella pneumoniae 14-4 after 18 to 24 hrs by CLSI M100-S11 method
[36] = test system: Staphylococcus aureus; assay: Antibacterial activity against Staphylococcus aureus CMCC 26003 after 18 to 24 hrs by CLSI M100-S11 method
[37] = test system: Klebsiella pneumoniae; assay: Antibacterial activity against extended-spectrum beta-lactamase-producing Klebsiella pneumoniae 14-19 after 18 to 24 hrs by CLSI M100-S11 method

Measured: MIC

CO/N=C1\CN(c2nc3c(cc2F)c(=O)c(C(=O)O)cn3-c2nc(N)c(F)cc2F)[C@H]1CN
8 µg/mL: [12] | [34]
64 µg/mL: [4] | [13] | [14] | [15] | [20] | [22] | [32]
32 µg/mL: [3] | [11] | [23]
16 µg/mL: [33]
> 32 µg/mL: [19]
4 µg/mL: [2] | [36]
128 µg/mL: [30]
2 µg/mL: [29]
> 128 µg/mL: all other assays above

CO[C@H]1/C=C/O[C@@]2(C)Oc3c(C)c(O)c4c(O)c(c(/C=N/N5CCN(C)CC5)c(O)c4c3C2=O)NC(=O)/C(C)=C\C=C\[C@H](C)[C@H](O)[C@@H](C)[C@@H](O)[C@@H](C)[C@H](OC(C)=O)[C@@H]1C [RIFAMPIN]
0.05 µg/mL: [19]

C[C@H]1COc2c(N3CCN(C)CC3)c(F)cc3c(=O)c(C(=O)O)cn1c23.C[C@H]1COc2c(N3CCN(C)CC3)c(F)cc3c(=O)c(C(=O)O)cn1c23.O [LEVOFLOXACIN]
128 µg/mL: [1] | [10]
64 µg/mL: [8] | [9] | [21] | [24] | [37]
16 µg/mL: [18] | [25] | [31]
0.25 µg/mL: [19] | [34]
2 µg/mL: [13] | [32]
32 µg/mL: [17] | [28]
1 µg/mL: [14] | [30]
4 µg/mL: [6] | [7] | [27]
8 µg/mL: [5] | [16] | [26] | [35]
0.125 µg/mL: [12] | [29] | [36]
0.5 µg/mL: [2]

CO/N=C1\CCN(c2nc3c(cc2F)c(=O)c(C(=O)O)cn3-c2nc(N)c(F)cc2F)CC1N (centres undefined)
8 µg/mL: [12] | [34] | [36]
> 32 µg/mL: [19]
128 µg/mL: [3] | [4] | [11] | [15] | [23] | [33]
16 µg/mL: [2] | [29]
64 µg/mL: [22] | [30]
not listed: [9]
> 128 µg/mL: all other assays above

Nc1nc(-n2cc(C(=O)O)c(=O)c3cc(F)c(N4CC/C(=N\OCc5ccccc5)C(O)C4)nc32)c(F)cc1F (centres undefined)
2 µg/mL: [36]
4 µg/mL: [2] | [12] | [34]
> 32 µg/mL: [19]
64 µg/mL: [25]
128 µg/mL: [3] | [4] | [11] | [15] | [23] | [32] | [33]
16 µg/mL: [29]
32 µg/mL: [22] | [30]
not listed: [9]
> 128 µg/mL: all other assays above

Source: ChEMBL document CHEMBL3797178, “Synthesis, antimycobacterial and antibacterial activity of 1-(6-amino-3,5-difluoropyridin-2-yl)fluoroquinolone derivatives containing an oxime functional moiety” (2016)
